Measurements from US7531320B2, “Modulation of β-catenin/TCF-activated transcription” (priority 2003, dated 2009).

Key:
[1] = Metabolism in human liver microsome (HPLC/MS); type: in vitro ADME; details: 5 minutes to 1 hour
Method: (§1) FIG. 10. Metabolism analysis of COMPOUND3 • A. The diode Array trace (upper panel) and the total ion current (lower panel) for COMPOUND3 and metabolites thereof in rat. • B. The diode Array trace (upper panel) and the total ion current (lower panel) for COMPOUND3 and metabolites thereof in human.
(§2) Metabolism of COMPOUND 3 was analyzed by incubating the compound with rat or human liver microsome for 5 minutes to 1 hour, fractioning extracts of treated microsome through HPLC and subjecting the fractions to MS analysis.

[2] = Bioavailability study in rat; type: in vivo; details: i.v and p.o, 10 mg/kg, 20% Tween 80
Method: (§3) Bioavailability of COMPOUND 3, COMPOUND 4 and COMPOUND 5 was studied in mouse and rat. All the compounds were administered (i.v and p.o, 10 mg/kg) using the same vehicle (i.e., 20% Tween 80).

[3] = Metabolism in rat liver microsome (HPLC/MS); type: in vitro ADME; details: 5 minutes to 1 hour
Method: as §1, §2

RPM17951 = details: RPM17951, Melanoma
Method: (§4) Cytotoxicity of COMPOUND 3 (an analog of COMPOUND 1, FIG. 1A) and other anticancer therapeutics were measured using cancer cells with various origins.

PC3 = details: PC3, Prostate
Method: as §4

A549 = details: A549, Lung
Method: as §4

HL60 = details: HL60, Leukemia
Method: as §4

MCF7 = details: MCF7, Breast
Method: as §4

293 = details: 293, Renal
Method: as §4

[4] = Bioavailability study in mouse; type: in vivo; details: i.v and p.o, 10 mg/kg, 20% Tween 80
Method: as §3

Min mouse = experiment: Polyp number in Min mouse model; type: in vivo
Method: COMPOUND 4, COMPOUND 5, or vehicle was administrated in wild type and Min mice. COMPOUND 4 is also an analog of COMPOUND 1 (FIG. 1A). The numbers of polyp formed in small intestine and colon of these mice after various treatments were measured (Table 6).

SMILES | Metabolites observed [1] | Bioavailability [2] | Metabolites observed [3] | Cytotoxicity (RPM17951) | Cytotoxicity (PC3) | Cytotoxicity (A549) | Cytotoxicity (HL60) | Cytotoxicity (MCF7) | Cytotoxicity 293 | Bioavailability [4] | Effect on number of polyp compared to vehicle control (Min mouse; Min mice, about 300 mpk) | Polyp Number (Mean + S.D.), Total (Min mouse; Min mouse) | Polyp Number (Mean + S.D.), Colon (Min mouse; Min mouse, 100 mpk) | Polyp Number (Mean + S.D.), Small intestine (Min mouse; Min mouse, 100 mpk) | Polyp Number (Mean + S.D.), Colon (Min mouse; Min mouse, 300 mpk) | Polyp Number (Mean + S.D.), Small intestine (Min mouse; Min mouse, 300 mpk) | Polyp Number (Mean + S.D.), Total (Min mouse; Min mouse, 300 mpk) | % Inhibition vs. VH (Min mouse; Min mouse, 300 mpk, total polyp number vs. vehicle)
CN1CC(=O)N2C(Cc3ccc(O)cc3)C(=O)N(Cc3cccc4ccccc34)CC2N1C(=O)NCc1ccccc1 (stereo not drawn) [COMPOUND 3] | Several metabolites (e.g., M1, M2, M3) were observed | about 24% | Several metabolites (e.g., M1, M2, M3) were observed | 0.936 µg/mL | 1.207 µg/mL | 1.386 µg/mL | 1.243 µg/mL | 7.355 µg/mL | 0.731 µg/mL | – | – | – | – | – | – | – | – | –
CN1CC(=O)N2C(Cc3ccc(O)cc3)C(=O)N(Cc3ccc(F)cc3F)CC2N1C(=O)NCc1ccccc1 (stereo not drawn) [COMPOUND 5] | – | – | – | – | – | – | – | – | – | ~0% | reduce the number of polyp | 71.4 ± 23.0 | 1.7 ± 1.5 | 69.2 ± 20.8 | 1.1 ± 1.2 | 46.1 ± 17.1 | 47.0 ± 16.9 | 31%
